Drawing on ChEMBL document CHEMBL1142850, “Hepatitis C virus NS3-4A serine protease inhibitors: use of a P2-P1 cyclopropyl alanine combination for improved potency” (Bioorg Med Chem Lett, 2005), this text covers Ki for nine compounds.

Numbered stars: 1 amine (or outer) side, 2 acyl side, 3 side chain; on linkers, the order of the positions; unused ones are H or OH. Square brackets hold non-standard residues; d marks the D form. Peptide text beside a SMILES is read from it. * marks the point of attachment. Isobutyloxycarbonyl = CC(C)COC(=O)*; Ala(cPr) = N[C@@H](CC1CC1)C(=O)O; X1 = CCCC(N[*:1])C(=O)C(=O)[*:2]; Ahp(2) = CCCCC[C@H](N)C(=O)O; Cba = N[C@@H](CC1CCC1)C(=O)O; Chg = N[C@H](C(=O)O)C1CCCCC1; Phg = N[C@H](C(=O)O)c1ccccc1; hLeu = CC(C)CC[C@H](N)C(=O)O

NS3, sequence (A3EZJ3 whole entry): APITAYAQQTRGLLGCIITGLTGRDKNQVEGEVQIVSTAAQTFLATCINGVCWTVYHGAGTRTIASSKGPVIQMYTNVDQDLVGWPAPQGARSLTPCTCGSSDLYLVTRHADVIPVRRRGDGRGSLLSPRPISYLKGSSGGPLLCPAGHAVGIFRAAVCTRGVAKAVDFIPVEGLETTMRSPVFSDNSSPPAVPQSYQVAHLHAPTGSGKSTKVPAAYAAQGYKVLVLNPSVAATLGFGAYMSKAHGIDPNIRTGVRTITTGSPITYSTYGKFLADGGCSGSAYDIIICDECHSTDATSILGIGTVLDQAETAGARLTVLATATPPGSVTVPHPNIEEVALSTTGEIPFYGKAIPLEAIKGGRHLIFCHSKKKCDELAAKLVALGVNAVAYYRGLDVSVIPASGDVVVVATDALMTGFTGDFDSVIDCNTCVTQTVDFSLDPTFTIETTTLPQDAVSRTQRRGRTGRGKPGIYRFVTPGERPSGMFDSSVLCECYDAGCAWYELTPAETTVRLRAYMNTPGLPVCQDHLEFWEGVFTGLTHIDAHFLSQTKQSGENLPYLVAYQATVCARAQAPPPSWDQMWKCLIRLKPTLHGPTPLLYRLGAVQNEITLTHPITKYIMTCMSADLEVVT

This assay concerns the target NS3 (Hepatitis C virus, UniProt A3EZJ3). In words: Inhibitory activity against HCV NS3 serine protease 1. Also noted: species or system Hepacivirus hominis.
`CCCC(NC(=O)[C@H](CC1OCCCO1)NC(=O)[C@@H](NC(=O)OCC(C)C)C1CCCCC1)C(=O)C(=O)NCC(=O)N[C@H](C(=O)O)c1ccccc1` (some centres undefined) returned a Ki of 430 nM. `CCCC(NC(=O)[C@H](CC1SCc2ccccc2CS1)NC(=O)[C@@H](NC(=O)OCC(C)C)C1CCCCC1)C(=O)C(=O)NCC(=O)N[C@H](C(=O)O)c1ccccc1` (some centres undefined) returned a Ki of 2300 nM. The figure for `CCCCC[C@H](NC(=O)[C@@H](NC(=O)OCC(C)C)C1CCCCC1)C(=O)NC(CCC)C(=O)C(=O)NCC(=O)N[C@H](C(=O)O)c1ccccc1` (some centres undefined) (Isobutyloxycarbonyl-[Chg][Ahp(2)][X1]G[Phg]-OH) is 300 nM; for `CCCC(NC(=O)[C@H](CC1OCCO1)NC(=O)[C@@H](NC(=O)OCC(C)C)C1CCCCC1)C(=O)C(=O)NCC(=O)N[C@H](C(=O)O)c1ccccc1` (some centres undefined) it is 300 nM; for `CCCC(NC(=O)[C@H](CC1SCCCS1)NC(=O)[C@@H](NC(=O)OCC(C)C)C1CCCCC1)C(=O)C(=O)NCC(=O)N[C@H](C(=O)O)c1ccccc1` (some centres undefined) it is 250 nM. As for `CCCC(NC(=O)[C@H](CC1CCC1)NC(=O)[C@@H](NC(=O)OCC(C)C)C1CCCCC1)C(=O)C(=O)NCC(=O)N[C@H](C(=O)O)c1ccccc1` (some centres undefined) (Isobutyloxycarbonyl-[Chg][Cba][X1]G[Phg]-OH), the Ki came out at 140 nM.

`CCCC(NC(=O)[C@H](CC1SCCS1)NC(=O)[C@@H](NC(=O)OCC(C)C)C1CCCCC1)C(=O)C(=O)NCC(=O)N[C@H](C(=O)O)c1ccccc1` (some centres undefined): the Ki amounted to 90 nM. Against the preceding compound, the Ki is about 1.6-fold lower.

Turning to `CCCC(NC(=O)[C@H](CCC(C)C)NC(=O)[C@@H](NC(=O)OCC(C)C)C1CCCCC1)C(=O)C(=O)NCC(=O)N[C@H](C(=O)O)c1ccccc1` (some centres undefined) (Isobutyloxycarbonyl-[Chg][hLeu][X1]G[Phg]-OH), the Ki was determined as 310 nM. With `CCCC(NC(=O)[C@H](CC1CC1)NC(=O)[C@@H](NC(=O)OCC(C)C)C1CCCCC1)C(=O)C(=O)NCC(=O)N[C@H](C(=O)O)c1ccccc1` (some centres undefined) (Isobutyloxycarbonyl-[Chg][Ala(cPr)][X1]G[Phg]-OH) the figure was 50 nM.

One may read the Ki as a measure of affinity in units of concentration, obtained from inhibition or displacement. Lower therefore signals higher affinity.
